This is an account of results in paper PMC6756013, “B591, a novel specific pan-PI3K inhibitor, preferentially targets cancer stem cells” (Oncogene, 2019).

For experiment [1], the system named is PI3K/Akt signaling in MDA-MB-231 and SUM-159PT cells. Kind of experiment: Western blot of PI3K/mTOR signaling (Supplementary Fig. S5A). Particulars: 5 h.
In experiment [2] the test system is MDA-MB-231 and SUM-159PT monolayer and mammosphere cells. Kind of experiment: Proliferation inhibition of monolayer versus mammosphere cells. Format: cell-based, human. The procedure: The proliferation inhibitory activities of B591 were compared between monolayer and mammosphere cells.
(§1) Cells were treated with indicated agents for 48 h, and cells were harvested and processed for apoptosis assay using the PE-Annexin V/7-AAD Apoptosis Detection Kit. d Representative flow cytometry plots of apoptosis inducing activity of B591 (10 μM) and paclitaxel (10 nM) on monolayer and mammosphere MDA-MB-231 cells. e B591 preferentially targeted CD44^high/CD24^low cells. Cells were treated with B591 or paclitaxel for 2 days. Following a 4-day recovery period, cells were co-stained with CD44 and CD24 antibodies and subjected to FACS analysis. Representative flow cytometry plots show the effect of B591 on CD44^high/CD24^low population in MDA-MB-231 cells in vitro. f B591 decreased mammosphere forming efficiency. Primary MDA-MB-231 mammospheres were treated with B591 or paclitaxel for 48 h. Results of the secondary mammosphere-formation assay are shown. Scale bar represents 40 μm. g B591 decreased the expression of CSC markers in MDA-MB-231 cells. Cells were treated with B591 or paclitaxel for 2 days. […] They label a gated population in plots with axes CD44 and CD24. / Panel E: DMSO is the vehicle control. Its printed value is included all the same.

Experiment [3] has the same test system. The experiment can be described thus: Apoptosis of monolayer versus mammosphere cells (PE-Annexin V/7-AAD). The format is cell-based, human. Particulars: 48 h. The procedure:
as §1
Supplementary Fig. S10. B591 preferentially targets CSCs. […] Following a 4-day recovery period, the expression of CSC markers was analyzed with western blot analysis.

The test system of experiment [4] is MDA-MB-231 and SUM-159PT mammospheres. Kind of experiment: Secondary mammosphere-formation assay. The format is cell-based, human. Particulars: primary mammospheres treated 48 h, then passaged. The procedure: Cells were treated with indicated agents for 48 h, and cells were harvested and processed for apoptosis assay using the PE-Annexin V/7-AAD Apoptosis Detection Kit. d Representative flow cytometry plots of apoptosis inducing activity of B591 (10 μM) and paclitaxel (10 nM) on monolayer and mammosphere MDA-MB-231 cells. e B591 preferentially targeted CD44^high/CD24^low cells. Cells were treated with B591 or paclitaxel for 2 days. Following a 4-day recovery period, cells were co-stained with CD44 and CD24 antibodies and subjected to FACS analysis. Representative flow cytometry plots show the effect of B591 on CD44^high/CD24^low population in MDA-MB-231 cells in vitro. f B591 decreased mammosphere forming efficiency. Primary MDA-MB-231 mammospheres were treated with B591 or paclitaxel for 48 h. Results of the secondary mammosphere-formation assay are shown. Scale bar represents 40 μm. g B591 decreased the expression of CSC markers in MDA-MB-231 cells. Cells were treated with B591 or paclitaxel for 2 days. […]
In the mammosphere assay, MDA-MB-231 (Fig. 3f) and SUM-159PT (Supplementary Fig. S10D) cells were treated with B591 or paclitaxel, and the mammospheres were collected and subsequently passaged. Secondary Mammosphere-forming activity was determined, which reflects the self-renewal capability of CSCs. […]

Another experiment has as its system SUM-159PT cells. The experiment can be described thus: Mammosphere formation after paclitaxel pre-treatment. The format is cell-based. Particulars: 8 nM Paclitaxel or 8 nM Paclitaxel plus 5 μM B591 for 24 h. How it is done: (§2) Fig. 6 B591 reduces breast tumor metastasis and recurrence. a Representative images show the effect of B591 (8 mg/kg) on lung metastasis of 4T1 cells, and data from six mice were plotted. b SUM-159PT cells were respectively treated with the indicated agents (8 nM Paclitaxel, 8 nM Paclitaxel plus 5 μM B591) for 24 h, the cells were then cultured for mammospheres. Representative images were shown, and data from two independent experiments were plotted. c–f SUM-159PT xenografts (n = 7) were treated with 4 mg/kg Paclitaxel, or 10 mg/kg B591, or both for 2 weeks, then ended the treatment and waited for tumor recurrence. Tumor volume (c) and body weight (d) were measured every 2 days after treatment, and tumors were photographed (e) and weighted (f) at the end of the experiment. ^*p < 0.05, ^**p < 0.01 versus indicated groups
Based on the finding that B591 preferentially targets CSCs, we supposed that by eliminating the breast CSCs, B591 might delay breast tumor recurrence after initial treatment with chemotherapy drugs. Paclitaxel is a first-line chemotherapeutic agent used for breast cancer therapy. SUM-159PT cells were pre-treated with paclitaxel, and then the cells remaining alive were cultured for mammospheres.

Experiment [5] deals with SUM-159PT orthotopic xenografts. Kind of experiment: Tumor recurrence study in SUM-159PT xenografts. Format: in vivo, NOD/SCID mice. The following applies: paclitaxel 4 mg/kg, B591 10 mg/kg, i.p., 2 weeks, then 3 weeks recurrence. How it is done:
as §2
In the tumor recurrence study, orthotopic xenografts were established with 5 × 10^6 SUM-159PT cells. When tumor volume reached about 50 mm^3, mice were randomly divided into four groups for treatment with vehicle, 4 mg/kg Paclitaxel, 10 mg/kg B591, and combination of 4 mg/kg Paclitaxel plus 10 mg/kg B591 (i.p.). Treatment was stopped after 2 weeks, and the tumors were allowed for recurrence for 3 weeks. Tumor volume and the body weight of mice were measured during the experiments. In the end of treatment, the mice were killed, and the tumor tissues were dissected and weighted.

Experiment [6] relates to phosphorylation of Akt and ERK in RD cells. The experiment can be described thus: Immunoblotting of feedback activation of Akt and ERK. The format is cell-based, human. The following applies: up to 24 h, B591 10 μM. The procedure:
Fig. 2 B591 inhibits PI3K/Akt pathway in multiple cancer cell lines. a Representative images of Akt1 redistribution in IGF-1-treated cells in the absence or presence of B591. Scale bar represents 10 μm. Arrows indicate IGF-1-mediated membrane translocation detected by the image analysis algorithm. b Inhibition of mTORC1 and mTORC2 signaling in multiple cancer cell lines, exposed for 5 h to increasing concentrations of B591. c HepG2 cells were treated with DMSO or 20 μM of B591 for 5 h. Immunofluorescence (red) intensity reflects eIF4E subcellular distribution. Cells were visualized with high content reader. Representative images are shown, and scale bar represents 50 μm. d Nuclear-to-cytoplasmic ratio of eIF4E in five cancer cell lines was determined via high content reader. e The phosphorylation of AKT and ERK was determined by immunoblotting in RD cells in the presence of 10 μM of B591 after indicated time of exposure. f Inhibition of the phosphorylation of AKT and ERK in RD cells treated with B591, PI-103 or Rapamycin for 24 h was determined by immunoblotting
Despite a significant efficacy in preclinical models, the clinical tumor response to mTORC1 inhibitors, such as rapalogs, is modest. […]

As for `Oc1cccc(-c2nc(N3CCOCC3)c3oc4ncccc4c3n2)c1` [PI-103], in experiment [1], the “Effect on PI3K/Akt, mTORC1 and mTORC2 signaling” value was “inhibited PI3K downstream mTORC1 and mTORC2 signaling”.

With `CC(=O)O[C@H]1C(=O)[C@@]2(C)[C@H]([C@H](OC(=O)c3ccccc3)[C@]3(O)C[C@H](OC(=O)[C@H](O)[C@@H](NC(=O)c4ccccc4)c4ccccc4)C(C)=C1C3(C)C)[C@]1(OC(C)=O)CO[C@@H]1C[C@@H]2O` [paclitaxel, reference compound], in experiment [2], the “Proliferation inhibitory activity, mammosphere versus monolayer cells” value was “mammosphere cells were resistant”. Further, the “Apoptosis induction, mammosphere versus monolayer populations” value in experiment [3] is listed as “induced less apoptosis of mammosphere populations than monolayer populations”. Besides, in experiment [4], the Secondary mammosphere-forming ability result is reported as “increased”. Moreover, the “Formation of mammospheres / paclitaxel-enriched CSCs” value with SUM-159PT cells is “increased the formation of mammospheres”. Further, in experiment [5], the “Tumor growth and regrowth after end of treatment” value is on record as “induced initial tumor remission, but these tumors regrew quickly after termination of paclitaxel therapy”. For the same molecule, the “Effect on PI3K/Akt, mTORC1 and mTORC2 signaling” value in experiment [1] is listed as “did not show any effect”.

As to `CO[C@H]1C[C@@H]2CC[C@@H](C)[C@@](O)(O2)C(=O)C(=O)N2CCCC[C@H]2C(=O)O[C@H]([C@H](C)C[C@@H]2CC[C@@H](O)[C@H](OC)C2)CC(=O)[C@H](C)/C=C(\C)[C@@H](O)[C@@H](OC)C(=O)[C@H](C)C[C@H](C)/C=C/C=C/C=C/1C` [rapamycin, reference compound], the “Phosphorylation of Akt and ERK” value in experiment [6] was “induced a hyper-activation of Akt and increased ERK phosphorylation”.
